Reference: US20250034159A1, “INHIBITORS OF EPIDERMAL GROWTH FACTOR RECEPTOR” (ORIC Pharmaceuticals, Inc., priority 2021, published 2025)
Like-named read-outs stand apart in the source and are kept apart here.

Assays:
[1] = biological target: recombinant human EGFR exon 19 deletion/C797S double mutant protein (Homo sapiens (Human), UniProt P00533, C797S/DEL746-750); experiment: Biological Activity Assay C: biochemical assay against EGFR exon 19 deletion/C797S protein (EGFR d19/CS)
Summary of the method: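 Compounds were tested as 16-point serial dilutions (final DMSO 2.5%) with a Phosphosens peptide sensor/ATP working solution (40 uM/4 mM). The signal was read kinetically over 90 cycles at 120 s intervals. IC50s came from 4-parameter fits of per-well slopes.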

Ba/F3_EGFR WT cells = experiment: Biological Activity Assay D: BaF3 cell proliferation assay, EGFR wild-type (BaF3 WT); assay type: cell-based; details: Ba/F3 EGFR, read-out: BaF3 WT IC50
BaF3_EGFR LR/CS cells = experiment: Biological Activity Assay D: BaF3 cell proliferation assay, EGFR L858R/C797S mutant (BaF3 LR/CS); assay type: cell-based; details: Ba/F3 EGFR, read-out: BaF3 LR/CS IC50
BaF3_EGFR d19/CS cells = experiment: Biological Activity Assay D: BaF3 cell proliferation assay, EGFR exon 19 deletion/C797S (BaF3 d19/CS); assay type: cell-based; details: Ba/F3 EGFR, read-out: BaF3 d19/CS IC50
[2] = Ba/F3_EGFR WT cells, ~72 hours, CellTiter-Glo
[3] = BaF3_EGFR LR/CS cells, ~72 hours, CellTiter-Glo
[4] = BaF3_EGFR d19/CS cells, ~72 hours, CellTiter-Glo

Chain of recombinant human EGFR exon 19 deletion/C797S double mutant protein (P00533 other isoform, or with tags, fused parts or gaps C797S/del 1-668/del 746-750 limits assumed): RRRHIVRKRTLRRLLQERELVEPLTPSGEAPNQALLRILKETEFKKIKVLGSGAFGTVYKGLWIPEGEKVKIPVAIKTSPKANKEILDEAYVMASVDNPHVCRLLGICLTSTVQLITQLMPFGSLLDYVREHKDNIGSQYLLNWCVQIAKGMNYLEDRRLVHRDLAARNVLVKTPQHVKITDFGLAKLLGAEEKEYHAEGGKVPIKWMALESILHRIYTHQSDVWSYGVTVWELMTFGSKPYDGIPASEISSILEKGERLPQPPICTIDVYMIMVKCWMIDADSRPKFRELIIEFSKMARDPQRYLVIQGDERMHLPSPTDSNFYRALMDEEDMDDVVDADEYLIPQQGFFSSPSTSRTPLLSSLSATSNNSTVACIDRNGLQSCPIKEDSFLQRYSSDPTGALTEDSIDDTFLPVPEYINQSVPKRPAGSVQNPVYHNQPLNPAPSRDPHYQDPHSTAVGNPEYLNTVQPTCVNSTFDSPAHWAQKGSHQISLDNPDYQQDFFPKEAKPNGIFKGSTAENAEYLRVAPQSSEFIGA

| SMILES | IC50 [1] | IC50 (Ba/F3_EGFR WT cells; [2]) | IC50 (BaF3_EGFR LR/CS cells; [3]) | IC50 (BaF3_EGFR d19/CS cells; [4]) | IC50 (Ba/F3_EGFR WT cells; 72 h) | IC50 (BaF3_EGFR LR/CS cells; 72 h) | IC50 (BaF3_EGFR d19/CS cells; 72 h) |
| --- | --- | --- | --- | --- | --- | --- | --- |
| CN1CCN(Cc2cccc(-c3cc4c(-c5cn(C6CS(=O)(=O)C6)nc5-c5ccc(F)cc5)ncnc4o3)c2)CC1 [Example 205, 3-[3-(4-fluorophenyl)-4-(6-{3-[(4-methylpiperazin-1-yl)methyl]phenyl}furo[2,3-d]pyrimidin-4-yl)-1H-pyrazol-1-yl]-1λ6-thietane-1,1-dione] | 0.11 nM | 1280 nM | 51 nM | 49.7 nM | – | – | – |
| O=S1(=O)CC(n2cc(-c3ncnc4oc(C#CC5CCC5)cc34)c(-c3ccc(F)cc3)n2)C1 [Example 206, 3-{4-[6-(cyclobutylethynyl)furo[2,3-d]pyrimidin-4-yl]-3-(4-fluorophenyl)-1H-pyrazol-1-yl}-1λ6-thietane-1,1-dione] | 6.02 nM | > 20000 nM | 2500 nM | 1110 nM | – | – | – |
| Fc1ccc(-c2nn(C3CCCCC3(F)F)cc2-c2ncnc3oc(-c4ccccc4)cc23)cc1 (centres unmarked) [Example 207, 4-[1-(2,2-difluorocyclohexyl)-3-(4-fluorophenyl)-1H-pyrazol-4-yl]-6-phenylfuro[2,3-d]pyrimidine] | 3.26 nM | 4390 nM | 140 nM | 633 nM | – | – | – |
| CC(=O)N1CCC=C(c2cc3c(-c4cn(CC(C)(C)O)nc4-c4ccc(F)cc4)ncnc3o2)C1 [Example 208, 1-[5-{4-[3-(4-fluorophenyl)-1-(2-hydroxy-2-methylpropyl)-1H-pyrazol-4-yl]furo[2,3-d]pyrimidin-6-yl}-3,6-dihydropyridin-1 (2H)-yl]ethan-1-one] | 0.4 nM | 1680 nM | 155 nM | 95.7 nM | – | – | – |
| CC(=O)N1CCC=C(c2cc3c(-c4cn(C5CS(=O)(=O)C5)nc4-c4ccc(F)cc4)ncnc3o2)C1 [Example 209, 3-{4-[6-(1-acetyl-1,2,5,6-tetrahydropyridin-3-yl)furo[2,3-d]pyrimidin-4-yl]-3-(4-fluorophenyl)-1H-pyrazol-1-yl}-1λ6-thietane-1,1-dione] | 0.44 nM | 1940 nM | 296 nM | 160 nM | – | – | – |
| C[C@@H]1C[C@H](n2cc(-c3ncnc4oc(-c5ccccc5)cc34)c(-c3ccc(F)cc3)n2)CN1S(C)(=O)=O [Example 212, 4-{3-(4-fluorophenyl)-1-[(3S,5R)-1-(methanesulfonyl)-5-methylpyrrolidin-3-yl]-1H-pyrazol-4-yl}-6-phenylfuro[2,3-d]pyrimidine] | 0.37 nM | 87.8 nM | 6.71 nM | 5.28 nM | – | – | – |
| CS(=O)(=O)CCCn1cc(-c2ncnc3[nH]c(-c4ccccc4)nc23)c(-c2ccc(F)cc2)n1 [Example 215, 6-{3-(4-fluorophenyl)-1-[3-(methanesulfonyl)propyl]-1H-pyrazol-4-yl}-8-phenyl-9H-purine] | 0.26 nM | 2340 nM | 30.8 nM | 83.5 nM | – | – | – |
| O=S1(=O)CC(n2cc(-c3ncnc4oc(-c5c[nH]cn5)cc34)c(-c3ccc(F)cc3)n2)C1 [Example 216, 3-{3-(4-fluorophenyl)-4-[6-(1H-imidazol-4-yl)furo[2,3-d]pyrimidin-4-yl]-1H-pyrazol-1-yl}-16-thietane-1,1-dione] | 0.06 nM | 2130 nM | 31.1 nM | 58.5 nM | – | – | – |
| Cn1cncc1-c1cc2c(-c3cn(C4CS(=O)(=O)C4)nc3-c3ccc(F)cc3)ncnc2o1 [Example 217, 3-{3-(4-fluorophenyl)-4-[6-(1-methyl-1H-imidazol-5-yl)furo[2,3-d]pyrimidin-4-yl]-1H-pyrazol-1-yl}-16-thietane-1,1-dione] | 0.276 nM | – | – | – | 1240 nM | 147 nM | 98.9 nM |
| O=S1(=O)CC(n2cc(-c3ncnc4oc(-c5ccns5)cc34)c(-c3ccc(F)cc3)n2)C1 [Example 218, 3-{3-(4-fluorophenyl)-4-[6-(1,2-thiazol-5-yl)furo[2,3-d]pyrimidin-4-yl]-1H-pyrazol-1-yl}-1λ6-thietane-1,1-dione] | 0.36 nM | 1440 nM | 158 nM | 103 nM | – | – | – |
| Fc1ccc(-c2nn([C@H]3C[C@H](F)C3)cc2-c2ncnc3oc(-c4ccccc4)cc23)cc1 [Example 219, 4-{1-[(1r,3r)-3-fluorocyclobutyl]-3-(4-fluorophenyl)-1H-pyrazol-4-yl}-6-phenylfuro[2,3-d]pyrimidine] | 1.53 nM | 4370 nM | 221 nM | 200 nM | – | – | – |
| CC1(C)CC(Cn2cc(-c3ncnc4oc(-c5ccccc5)cc34)c(-c3ccc(F)cc3)n2)O1 (centres unmarked) [Example 220, 4-{1-[(4,4-dimethyloxetan-2-yl)methyl]-3-(4-fluorophenyl)-1H-pyrazol-4-yl}-6-phenylfuro[2,3-d]pyrimidine] | 0.55 nM | 1040 nM | 37.2 nM | 111 nM | – | – | – |
| Cc1noc(-c2cc3c(-c4cn(C5CS(=O)(=O)C5)nc4-c4ccc(F)cc4)ncnc3o2)n1 [Example 223, 3-{3-(4-fluorophenyl)-4-[6-(3-methyl-1,2,4-oxadiazol-5-yl)furo[2,3-d]pyrimidin-4-yl]-1H-pyrazol-1-yl}-1λ6-thietane-1,1-dione] | 21.6 nM | > 20000 nM | 2200 nM | 893 nM | – | – | – |
| Cc1ncc(-c2cc3c(-c4cn(C5CS(=O)(=O)C5)nc4-c4ccc(F)cc4)ncnc3o2)s1 [Example 224, 3-{3-(4-fluorophenyl)-4-[6-(2-methyl-1,3-thiazol-5-yl)furo[2,3-d]pyrimidin-4-yl]-1H-pyrazol-1-yl}-16-thietane-1,1-dione] | 0.14 nM | – | – | – | 1450 nM | 26.6 nM | 37.7 nM |
| CN(C)C(=O)c1ccccc1-c1cc2c(-c3cn(C4CS(=O)(=O)C4)nc3-c3ccc(F)cc3)ncnc2o1 [Example 228, 2-{4-[1-(1,1-dioxo-1λ6-thietan-3-yl)-3-(4-fluorophenyl)-1H-pyrazol-4-yl]furo[2,3-d]pyrimidin-6-yl}-N,N-dimethylbenzamide] | 2.13 nM | 4560 nM | 667 nM | 384 nM | – | – | – |
| CNC(=O)c1ccccc1-c1cc2c(-c3cn(C4CS(=O)(=O)C4)nc3-c3ccc(F)cc3)ncnc2o1 [Example 229, 2-{4-[1-(1,1-dioxo-1λ6-thietan-3-yl)-3-(4-fluorophenyl)-1H-pyrazol-4-yl]furo[2,3-d]pyrimidin-6-yl}-N-methylbenzamide] | 0.67 nM | 3760 nM | 292 nM | 169 nM | – | – | – |
| Fc1ccc(-c2nn(CCOC(F)F)cc2-c2ncnc3oc(-c4ccccc4)cc23)cc1 [Example 231, 4-{1-[2-(difluoromethoxy)ethyl]-3-(4-fluorophenyl)-1H-pyrazol-4-yl}-6-phenylfuro[2,3-d]pyrimidine] | 0.46 nM | 660 nM | 17.9 nM | 35.4 nM | – | – | – |
| N#CCCc1cccc(-c2cc3c(-c4cn(C5CS(=O)(=O)C5)nc4-c4ccc(F)cc4)ncnc3o2)c1 [Example 232, 3-(3-{4-[1-(1,1-dioxo-1λ6-thietan-3-yl)-3-(4-fluorophenyl)-1H-pyrazol-4-yl]furo[2,3-d]pyrimidin-6-yl}phenyl)propanenitrile] | 0.23 nM | 301 nM | 9.42 nM | 9.99 nM | – | – | – |
| Cc1cnc(-c2cc3c(-c4cn(C5CS(=O)(=O)C5)nc4-c4ccc(F)cc4)ncnc3o2)o1 [Example 234, 3-{3-(4-fluorophenyl)-4-[6-(5-methyl-1,3-oxazol-2-yl)furo[2,3-d]pyrimidin-4-yl]-1H-pyrazol-1-yl}-1λ6-thietane-1,1-dione] | 3.6 nM | 2120 nM | 438 nM | 309 nM | – | – | – |
| O=S1(=O)CC(n2cc(-c3ncnc4oc(-c5ccsn5)cc34)c(-c3ccc(F)cc3)n2)C1 [Example 235, 3-{3-(4-fluorophenyl)-4-[6-(1,2-thiazol-3-yl)furo[2,3-d]pyrimidin-4-yl]-1H-pyrazol-1-yl}-1λ6-thietane-1,1-dione] | 0.24 nM | 837 nM | 41.8 nM | 41.3 nM | – | – | – |
| Cc1nc(-c2cc3c(-c4cn(C5CS(=O)(=O)C5)nc4-c4ccc(F)cc4)ncnc3o2)cs1 [Example 236, 3-{3-(4-fluorophenyl)-4-[6-(2-methyl-1,3-thiazol-4-yl)furo[2,3-d]pyrimidin-4-yl]-1H-pyrazol-1-yl}-16-thietane-1,1-dione] | 0.16 nM | 924 nM | 11.2 nM | 17.1 nM | – | – | – |
| CNC(=O)c1cncc(-c2cc3c(-c4cn(C5CS(=O)(=O)C5)nc4-c4ccc(F)cc4)ncnc3o2)c1 [Example 239, 5-{4-[1-(1,1-dioxo-1λ6-thietan-3-yl)-3-(4-fluorophenyl)-1H-pyrazol-4-yl]furo[2,3-d]pyrimidin-6-yl}-N-methylpyridine-3-carboxamide] | 1.73 nM | 12400 nM | 1500 nM | 1280 nM | – | – | – |
| Cc1ccc(-c2cc3c(-c4cn(C5CS(=O)(=O)C5)nc4-c4ccc(F)cc4)ncnc3o2)c(C)n1 [Example 240, 3-{4-[6-(2,6-dimethylpyridin-3-yl)furo[2,3-d]pyrimidin-4-yl]-3-(4-fluorophenyl)-1H-pyrazol-1-yl}-16-thietane-1,1-dione] | 0.34 nM | 7560 nM | 57.9 nM | 66.4 nM | – | – | – |
